Patent publication US9155784B2, “Anti-TNF-α therapy for the mucopolysaccharidoses and other lysosomal disorders” (Icahn School of Medicine at Mount Sinai, priority 2011, dated 2015)

Assays:
[1] = test system: MPS VI rats; experiment: Skull and snout appearance, radiographs and microCT in PPS treated MPS VI rats; format: in vivo, rat
Procedure: FIGS. 6A-6D show results of MPS VI rats treated with PPS. MPS VI rats were maintained on normal watering (FIG. 6A) or with water containing 25 mg/day PPS (n=6/group) (FIG. 6B). Animals were 6 months of age when treatment began, and treatment was carried out for 3 months. Skull and snout images were taken at the end of treatment. Representative images are shown. Skull length and width measurements also were determined from the radiographs for each of the animals, and the data are shown in the bar graph (FIGS. 6C, 6D). White=normal 9 month old, Gray=MPS VI rats on normal water; Blue=MPS VI rats receiving PPS. *=p<0.01.
FIGS. 7A-7F show skull radiographs (FIGS. 7A, 7B, 7C) and microCT images (FIGS. 7D, 7E, 7F) of normal rats (FIGS. 7A, 7D), MPS VI rats with PPS treatment (FIGS. 7C, 7F), and MPS VI rats without PPS treatment (FIGS. 7B, 7E). MPS VI rats were maintained on normal watering or with water containing 25 mg/day PPS (n=6/group). Animals were 6 months of age when treatment was begun, and treatment was carried out for 3 months. The top images show radiographs (FIGS. 7A, 7B, 7C), and the bottom images microCT images (FIGS. 7D, 7E, 7F). Longer snouts and thinner skulls were found in the MPS VI rats treated with PPS compared to untreated MPS VI. The lines in the radiographs are for reference. The quantitative data shown in FIGS. 6A-6D on skull length and width were measured from these radiographs.
In order to develop “proof-of-principle” data, six MPS VI rats at 6 months of age were treated with PPS for 3 months. 6-month-old MPS VI rats have established bone, cartilage, and inflammatory disease, and the specific goal in this initial study was therefore to evaluate whether PPS could either slow or reverse any of the clinical or pathological findings in MPS animals with advanced disease. […] As illustrated by FIGS. 7A-7F skull radiographs and microCT images were taken of normal rats (FIGS. 7A, 7D), MPS VI rats with PPS treatment (FIGS. 7C, 7F), and MPS VI rats without PPS treatment (FIGS. 7B, 7E). […] The images shown are representative of the general observations on these animals.

[2] = test system: MPS VI rats; experiment: MicroCT of dentition in PPS treated MPS VI rats; format: in vivo, rat; settings: PPS 25 mg/day, start at 6 months of age, 3 months
Procedure: FIGS. 8A-8F show microCT images of normal rats (FIGS. 8A, 8B) MPS VI rats with PPS treatment (FIGS. 8E, 8F) and without PPS treatment (FIGS. 8C, 8D) showing dentition changes. MPS VI rats were maintained on normal watering or with water containing 25 mg/day PPS (n=6/group). Animals were 6 months of age when treatment was begun, and treatment was carried out for 3 months. Untreated MPS VI rats have overgrown incisors (box) that leads to abnormal alignment of the teeth compared to normal rats. The mandible and misalignment were corrected by PPS treatment.
Untreated MPS VI rats have overgrown incisors (box) (FIGS. 8C, 8D) that leads to abnormal alignment of the teeth compared to normal rats. The mandible and misalignment were corrected by PPS treatment (FIGS. 8E, 8F).

[3] = test system: MPS VI rats; experiment: Accelerating rotarod of PPS treated MPS VI rats; format: in vivo, rat
Procedure: FIG. 9 depicts rotarod analysis of MPS VI rats with and without PPS. Six-month-old MPS VI rats were maintained with or without PPS for 3 months (n=6/group), and prior to sacrifice were analyzed using an accelerating rotarod apparatus. Gray=MPS VI rats on normal water; Blue=MPS VI rats receiving PPS.
FIGS. 12A-12C show results of treatment of MPS VI rats at one month of age. In FIGS. 12A and 12B, one-month old MPS VI rats were maintained for eight months on normal water or with water containing 25 mg/day PPS (n=6/group). Representative images are shown. Arrows indicate ocular porphyrin secretions, wide broad skull and snout and small ears in the untreated, with marked improvement in the treated animal. In FIG. 12C, animals were tested on an accelerating rotarod apparatus. […] In addition, only normal and treated rats were able to remain on the rotating rod at speeds up to 35 RPM (60% of normal).
(§1) Immediately prior to sacrifice, the animals also were studied using an accelerating rotarod apparatus. […] It was hypothesized that this reflects either increased joint mobility and/or reduced inflammation and pain in the treatment group. […] Serum levels of inflammatory marker MIP-1α is shown in FIG. 11A, while levels of marker Rantes is show in FIG. 11B and levels of TNF-α are shown in FIG. 11C.

[4] = test system: TNF-α; experiment: Immunohistochemical analysis of TNF-α in liver and spleen of PPS treated MPS VI rats; format: in vivo, rat; settings: PPS start at 6 months, 9-month-old animals, vs untreated
Text: (§2) FIGS. 10A-10B illustrate immunohistochemical analysis of PPS treated and untreated rats.
as §1

[5] = test system: MIP-1α, Rantes, TNF-α; experiment: Serum inflammatory markers by ELISA in PPS treated MPS VI rats; format: in vivo, rat
Procedure: as §2
FIGS. 11A-11C show serum inflammatory markers in treated and untreated MPS VI rats. Three groups of MPS VI rats were treated with PPS beginning at six months (light gray), one month (dark gray) or prenatally (black). All animals were sacrificed at 9 months of age. The duration of treatment was therefore 3 months, 8 months or 9.75 months, respectively. The serum levels of several inflammatory markers were measured by ELISA assays, and compared to normal (hatched) or untreated MPS VI animals (white). N=6/group. Serum levels of inflammatory marker MIP-1α is shown in FIG. 11A, while levels of marker Rantes is shown in FIG. 11B and levels of TNF-α are shown in FIG. 11C.
as §1

[6] = test system: MPS VI rats; experiment: Tracheas of MPS VI rats treated with PPS; format: in vivo, rat; settings: all PPS treatment groups (start 6 months, 1 month, prenatally), sacrificed at 9 months
Procedure: FIG. 13 illustrates tracheas of MPS VI rats treated with PPS. Groups 1, 2 and 3 animals were treated with PPS beginning at 6 months, 1 month, and prenatally. They were sacrificed at 9 months and the tracheas were isolated.

[7] = test system: MPS VI rats; experiment: Spine disease: disc height index from sagittal radiographs, PPS treated MPS VI rats; format: in vivo, rat; settings: PPS treatment of skeletally mature animals (6 months of age)
Procedure: FIGS. 14A-14C show an assessment of spine disease in the treated (6 month old) and untreated MPS VI rats.
Lastly, spine disease in the treated (6 month old) and untreated MPS VI rats was assessed. These studies have documented several important and clinically relevant endpoints that can be followed during PPS treatment. Histologically, MPS VI discs had abundant, enlarged vacuolated nuclear and annular cells as well as thickened annulus layers, focal defects in the nucleus pulposus, and increased disc height as compared to control discs (FIG. 14A). […] ADAMTS-5 is a proteoglycan-degrading aggrecanase that also is elevated in untreated MPS VI rat chondrocytes, but was reduced in the MPS VI treatment groups (FIG. 15).

[8] = test system: articular chondrocytes; experiment: Western blotting of articular chondrocytes from PPS treated MPS VI rats; format: in vivo, rat; settings: western blot, PPS groups 1-3, sacrificed at 9 months
Procedure: Groups 1, 2 and 3 animals were treated with PPS beginning at 6 months, 1 month and prenatally. They were sacrificed at 9 months and articular chondrocytes were isolated and grown for 3 weeks. They were then analyzed by western blotting. […] ADAMTS-5 is a proteeoglycan-degrading aggrecanase that also is elevated in untreated MPS VI rat chondrocytes, and was reduced in the MPS VI treatment groups.

[9] = test system: Niemann-Pick disease mice (acid sphingomyelinase knock-out); experiment: Rotarod analysis of Niemann-Pick disease mice treated with PPS; format: in vivo, mouse; settings: 25 mg/kg/day for three months from one month of age; 20 RPM; p<0.01; remained below wild-type
Procedure: One-month-old Niemann-Pick disease mice (acid sphingomyelinase knock-out) were treated with PPS for three months beginning at one month of age (25 mg/kg/day). They were then analyzed using an accelerating rotarod apparatus set to 20 RPM.

[10] = PPS 25 mg/day in water, start at 6 months of age, 3 months, vs untreated MPS VI
[11] = all treatment groups (start 6 months, 1 month or prenatally), sacrificed at 9 months, vs untreated

## Pentosan polysulfate [PPS]
[1]; [10]
  skull length: significantly longer
  skull width: thinner
  snout length: significantly longer
[1]; PPS start at 1 month of age, 8 months
  facial appearance, skull length, eye and nasal secretions, and motility: significant effect
[1]; PPS start at 6 months of age, 3 months, vs untreated MPS VI
  ocular porphyrin secretions: markedly fewer
[2]
  mandible and misalignment of the teeth: corrected
[3]; PPS start at 1 month of age, 8 months, 20 RPM
  time on the rotating rod versus untreated: more than twice as long
[3]; PPS start at 1 month of age, 8 months, untreated unable to remain
  rotarod performance at speeds up to 35 RPM: 60 % of normal
[3]; PPS start at 6 months of age, 3 months, p<0.02
  time on the rotating rod versus untreated: more than twice as long
[4]
  TNF-α expression in liver and spleen: decreased
[5]; PPS start at 6 months, 9-month-old animals, vs untreated (FIG. 10B)
  serum TNF levels: decreased
[5]; [11]
  serum MIP-1α level: significantly (<0.001) lower
  serum Rantes level: significantly (<0.001) lower
  serum TNF-α level: significantly (<0.001) lower
[6]
  collapsed tracheas: improved
[7]
  disc height index (DHI): did not influence
[8]
  ADAMTS-5 in articular chondrocytes: reduced
  Cox-2 in articular chondrocytes: reduced to normal
  TNF-α in articular chondrocytes: reduced to normal
  p38 in articular chondrocytes: reduced to normal
[9]
  rotarod performance versus untreated NPD mice: significantly better
